Source: the NIST ThermoML archive (doi:10.1021/je501135p)
± gives the expanded uncertainty stated by the source. Values belong to the compound of their own block, whether it stands above or below them.

Conditions: Liquid, Ebulliometric method (Recirculating still)

vapor or sublimation pressure (433.38 K): 99 ± 3 kPa
SMILES: OC1CCCCC1 [cyclohexanol]

vapor or sublimation pressure (428.01 K): 99 ± 3 kPa
SMILES: O=C1CCCCC1 [cyclohexanone]

vapor or sublimation pressure (444.48 K): 99 ± 1 kPa
vapor or sublimation pressure (444.51 K): 99 ± 1 kPa
SMILES: O=C1C=CCCC1 [2-cyclohexen-1-one]
